Assay: Effect of dextrose and mannitol concentration on buprenorphine solubility in pectin solution (hplc)
Details: aqueous solution containing 20 mg/ml pectin, across the measured pH range
Procedure: Solutions containing pectin (Slendid 100) (20 mg/ml) were prepared at pH 3, 4, 5 and 6 (pH adjustments were made with 0.1M HCl or 0.1M meglumine). […] An excess of buprenorphine hydrochloride was then added and the mixture stirred overnight at 18° C. Saturated buprenorphine hydrochloride solutions were produced by passing each mixture through a 0.2 μm polycarbonate membrane filter. The concentration of buprenorphine hydrochloride in the filtrate was determined by hplc.

CO[C@]12CCC3(C[C@@H]1[C@@](C)(O)C(C)(C)C)[C@H]1Cc4ccc(O)c5c4[C@@]3(CCN1CC1CC1)C2O5 (stereo partly shown) [Buprenorphine]
Effect of dextrose or mannitol concentration on buprenorphine solubility: not affected significantly
